Measured values from PMC6863074 (Journal of medicinal chemistry, 2015).
“Also recorded” adds a separate entry of the source. Marks after values point to notes of the source that are not given here.

System: S. aureus ATCC 27660
Assay: not given
Conditions: iv, 2 doses given at 30 min and 7.5 h after infection; cited from earlier work

Q: Which ED50 does the source give for Oc1ccc(-c2nc(-c3ccc(Oc4ccc(C(F)(F)F)cc4)cc3)no2)cc1 [compound 1] here?
A: The ED50 was “ED50 = 40 mg/kg^c”.

Same assay, conditions: po, single dose given at 1 h after infection; cited from earlier work

Q: With Oc1ccc(-c2nc(-c3ccc(Oc4ccc(C(F)(F)F)cc4)cc3)no2)cc1 [compound 1] as the molecule, how does the ED50 read?
A: The ED50 was 44^a mg/kg.

System: not given
Assay: not given
Conditions: antibiotics on the market; cited from earlier work

Q: With CO[C@H]1/C=C/O[C@@]2(C)Oc3c(C)c(O)c4c(O)c(c(/C=N/N5CCN(C)CC5)c(O)c4c3C2=O)NC(=O)/C(C)=C\C=C\[C@H](C)[C@H](O)[C@@H](C)[C@@H](O)[C@@H](C)[C@H](OC(C)=O)[C@@H]1C [rifampicin] as the molecule, how does the plasma protein binding read?
A: Its plasma protein binding is > 91%.

Same assay, conditions: plasma; cited from earlier work

Q: With CCCCCCCCCC(=O)N[C@@H](Cc1c[nH]c2ccccc12)C(=O)N[C@H](CC(N)=O)C(=O)N[C@@H](CC(=O)O)C(=O)N[C@@H]1C(=O)NCC(=O)N[C@@H](CCCN)C(=O)N[C@@H](CC(=O)O)C(=O)N[C@H](C)C(=O)N[C@@H](CC(=O)O)C(=O)NCC(=O)N[C@H](CO)C(=O)N[C@@H]([C@H](C)CC(=O)O)C(=O)N[C@@H](CC(=O)c2ccccc2N)C(=O)O[C@@H]1C [daptomycin] as the molecule, how does the plasma protein binding read?
A: The plasma protein binding was > 91%.

Q: For Cc1onc(-c2ccccc2)c1C(=O)N[C@@H]1C(=O)N2[C@@H]1SC(C)(C)[C@@H]2C(=O)O [oxacillin], which plasma protein binding is on record?
A: The plasma protein binding was > 91%.

Q: With teicoplanin as the molecule, how does the plasma protein binding read?
A: The plasma protein binding was > 91%.

System: S. aureus ATCC 29213
Assay: MIC determination, S. aureus ATCC 29213
Conditions: S. aureus ATCC 29213 MIC screening; active = MIC ≤ 8 μg/mL

Q: For Nc1ccc(-c2nc(-c3ccc(Oc4ccccc4)cc3)no2)cc1 [58a], which “antibacterial activity (in words)” value is on record?
A: Its value is “low MIC values”.

Q: With Nc1ccc(-c2nc(-c3ccc(Oc4ccc(C(F)(F)F)cc4)cc3)no2)cc1 [58b] as the molecule, how does the “antibacterial activity (in words)” value read?
A: The value was “low MIC values”.

Q: Which “antibacterial activity (in words)” value does the source give for Nc1ccc(-c2nc(-c3ccc(Oc4ccc(F)cc4)cc3)no2)cc1 [58c] here?
A: Its value is “no antibiotic activity”.

Q: Which “antibacterial activity (in words)” value does the source give for Nc1c[nH]nc1-c1nc(-c2ccc(Oc3ccc(C(F)(F)F)cc3)cc2)no1 [64b, 3-(3-(4-(4-(Trifluoromethyl)phenoxy)phenyl)-1,2,4-oxadiazol-5-yl)-1H-pyrazol-4-amine] here?
A: Its value is “tolerated”.

Q: Which “antibacterial activity (in words)” value does the source give for CC(C)Nc1c[nH]nc1-c1nc(-c2ccc(Oc3ccccc3)cc2)no1 [65a] here?
A: Its value is “active”.

Q: Which “antibacterial activity (in words)” value does the source give for N#Cc1c[nH]nc1-c1nc(-c2ccc(Oc3ccc(C(F)(F)F)cc3)cc2)no1 [67b] here?
A: The value was “maintained good activity”.

Q: For OCC#Cc1c[nH]nc1-c1nc(-c2ccc(Oc3ccc(C(F)(F)F)cc3)cc2)no1 [68b], which “antibacterial activity (in words)” value is on record?
A: Its value is “maintained good activity”.

Q: With Oc1ccc(-c2nc(-c3ccc(Oc4ccc(C(F)(F)F)cc4)cc3)no2)cc1O [69b] as the molecule, how does the “antibacterial activity (in words)” value read?
A: Its value is “retained activity”.

Q: For Oc1c(F)cc(-c2nc(-c3ccc(Oc4ccc(C(F)(F)F)cc4)cc3)no2)cc1F [71b], which “antibacterial activity (in words)” value is on record?
A: The value was “without significant loss of activity”.

Q: Which “antibacterial activity (in words)” value does the source give for Nc1ccc(-c2nc(-c3ccc(Oc4ccc(C(F)(F)F)cc4)cc3)no2)cc1F [72b] here?
A: Its value is “without significant loss of activity”.

Q: For Nc1c(F)cc(-c2nc(-c3ccc(Oc4ccccc4)cc3)no2)cc1F [73a], which “antibacterial activity (in words)” value is on record?
A: The value was “without significant loss of activity”.

Q: For FC(F)(F)c1ccc(Oc2ccc(-c3noc(-c4c[nH]cn4)n3)cc2)cc1 [76b, 5-(1H-Imidazol-4-yl)-3-(4-(4-(trifluoromethyl)phenoxy)phenyl)-1,2,4-oxadiazole], which “antibacterial activity (in words)” value is on record?
A: The value was “retained good activity”.

Q: Which “antibacterial activity (in words)” value does the source give for O=[N+]([O-])c1cc(-c2nc(-c3ccc(Oc4ccc(C(F)(F)F)cc4)cc3)no2)cnc1O [77b] here?
A: Its value is “retained good activity”.

Q: For O=[N+]([O-])c1c[nH]c(-c2nc(-c3ccc(Oc4ccc(C(F)(F)F)cc4)cc3)no2)c1 [78b], which “antibacterial activity (in words)” value is on record?
A: Its value is “retained good activity”.

Q: For O=[N+]([O-])c1c[nH]c(-c2nc(-c3ccc(Oc4ccc(F)cc4)cc3)no2)c1 [78c], which “antibacterial activity (in words)” value is on record?
A: The value was “generally abolish antibacterial activity”.

Q: For Fc1ccc(-c2nc(-c3ccc(Oc4ccccc4)cc3)no2)cc1 [80a], which “antibacterial activity (in words)” value is on record?
A: Its value is “loss of activity”.

Q: For FC(F)(F)c1ccc(Oc2ccc(-c3noc(-c4ccc(Br)cc4)n3)cc2)cc1 [81b], which “antibacterial activity (in words)” value is on record?
A: Its value is “loss of activity”.

Q: For O=[N+]([O-])c1ccc(-c2nc(-c3ccc(Oc4ccccc4)cc3)no2)cc1 [82a], which “antibacterial activity (in words)” value is on record?
A: The value was “loss of activity”.

Q: With O=P(O)(O)c1ccc(-c2nc(-c3ccc(Oc4ccc(F)cc4)cc3)no2)cc1 [84c] as the molecule, how does the “antibacterial activity (in words)” value read?
A: The value was “loss of activity; also recorded: attenuate or abrogate activity”.

Q: For NS(=O)(=O)c1ccc(-c2nc(-c3ccc(Oc4ccc(C(F)(F)F)cc4)cc3)no2)cc1 [87b], which “antibacterial activity (in words)” value is on record?
A: The value was “failed to show activity; also recorded: attenuate or abrogate activity”.

Q: Which “antibacterial activity (in words)” value does the source give for NS(=O)(=O)c1ccc(-c2nc(-c3ccc(Oc4ccc(F)cc4)cc3)no2)cc1 [87c] here?
A: Its value is “attenuate or abrogate activity”.

Q: With NC(=O)c1ccc(-c2nc(-c3ccc(Oc4ccc(F)cc4)cc3)no2)cc1 [88c] as the molecule, how does the “antibacterial activity (in words)” value read?
A: Its value is “failed to show activity; also recorded: attenuate or abrogate activity”.

Q: With O=C(O)c1ccc(-c2nc(-c3ccc(Oc4ccc(F)cc4)cc3)no2)cc1 [89c] as the molecule, how does the “antibacterial activity (in words)” value read?
A: Its value is “failed to show activity; also recorded: attenuate or abrogate activity”.

Q: Which “antibacterial activity (in words)” value does the source give for COC(=O)c1ccc(-c2nc(-c3ccc(Oc4ccc(F)cc4)cc3)no2)cc1 [90c] here?
A: The value was “failed to show activity”.

Q: Which “antibacterial activity (in words)” value does the source give for O=[N+]([O-])c1cc(-c2nc(-c3ccc(Oc4ccc(F)cc4)cc3)no2)ccc1O [91c] here?
A: The value was “failed to show activity; also recorded: abolish activity”.

Q: Which “antibacterial activity (in words)” value does the source give for Nc1cc(-c2nc(-c3ccc(Oc4ccc(F)cc4)cc3)no2)ccc1O [92c] here?
A: Its value is “failed to show activity”.

Q: Which “antibacterial activity (in words)” value does the source give for COc1cc(-c2nc(-c3ccc(Oc4ccc(C(F)(F)F)cc4)cc3)no2)ccc1O [93b] here?
A: Its value is “failed to show activity; also recorded: abolish activity”.

Q: For COc1cc(-c2nc(-c3ccc(Oc4ccccc4)cc3)no2)ccc1N [94a], which “antibacterial activity (in words)” value is on record?
A: Its value is “abolish activity”.

Q: For Oc1cccc(-c2nc(-c3ccc(Oc4ccccc4)cc3)no2)c1 [95a], which “antibacterial activity (in words)” value is on record?
A: Its value is “failed to show activity”.

Q: For Oc1cc(-c2nc(-c3ccc(Oc4ccccc4)cc3)no2)ccc1I [96a], which “antibacterial activity (in words)” value is on record?
A: Its value is “failed to show activity”.

Q: Which “antibacterial activity (in words)” value does the source give for Oc1ccccc1-c1nc(-c2ccc(Oc3ccccc3)cc2)no1 [97a] here?
A: Its value is “failed to show activity”.

Q: For FC(F)(F)c1ccc(Oc2ccc(-c3noc(-c4cc[nH]n4)n3)cc2)cc1 [102b], which “antibacterial activity (in words)” value is on record?
A: Its value is “No activity”.

Q: For CCCCNc1c[nH]nc1-c1nc(-c2ccc(Oc3ccc(C(F)(F)F)cc3)cc2)no1 [104b], which “antibacterial activity (in words)” value is on record?
A: Its value is “did not extend”.

Q: For CC(C)CNc1c[nH]nc1-c1nc(-c2ccc(Oc3ccc(C(F)(F)F)cc3)cc2)no1 [105b], which “antibacterial activity (in words)” value is on record?
A: Its value is “did not extend”.

Q: For FC(F)(F)c1ccc(Oc2ccc(-c3noc(-c4n[nH]cc4NC4CCCCC4)n3)cc2)cc1 [106b], which “antibacterial activity (in words)” value is on record?
A: Its value is “did not extend”.

Q: Which “antibacterial activity (in words)” value does the source give for FC(F)(F)c1ccc(Oc2ccc(-c3noc(-c4n[nH]cc4NC4CCCC4)n3)cc2)cc1 [107b] here?
A: Its value is “did not extend”.

Q: With O=C(Nc1c[nH]nc1-c1nc(-c2ccc(Oc3ccc(C(F)(F)F)cc3)cc2)no1)c1ccccc1 [108b] as the molecule, how does the “antibacterial activity (in words)” value read?
A: Its value is “did not extend”.

Q: Which “antibacterial activity (in words)” value does the source give for O=C(Nc1c[nH]nc1-c1nc(-c2ccc(Oc3ccc(C(F)(F)F)cc3)cc2)no1)c1ccccn1 [109b] here?
A: The value was “did not extend”.

Q: With O=c1[nH]c(-c2ccc(Oc3ccccc3)cc2)no1 [112a] as the molecule, how does the “antibacterial activity (in words)” value read?
A: Its value is “abolishes activity”.

Q: With Cc1nc(-c2ccc(Oc3ccccc3)cc2)no1 [113a] as the molecule, how does the “antibacterial activity (in words)” value read?
A: The value was “abolishes activity”.

Q: With c1ccc(Oc2ccc(-c3noc(-c4ccncc4)n3)cc2)cc1 [114a] as the molecule, how does the “antibacterial activity (in words)” value read?
A: Its value is “generally abolish antibacterial activity”.

Q: With [O-][n+]1ccc(-c2nc(-c3ccc(Oc4ccccc4)cc3)no2)cc1 [115a] as the molecule, how does the “antibacterial activity (in words)” value read?
A: Its value is “generally abolish antibacterial activity”.

Q: For FC(F)(F)c1ccc(Oc2ccc(-c3noc(-c4nc[nH]n4)n3)cc2)cc1 [116b], which “antibacterial activity (in words)” value is on record?
A: The value was “generally abolish antibacterial activity”.

Q: With FC(F)(F)c1ccc(Oc2ccc(-c3noc(-c4cn[nH]n4)n3)cc2)cc1 [117b] as the molecule, how does the “antibacterial activity (in words)” value read?
A: The value was “generally abolish antibacterial activity”.

Q: For CCn1ccc(-c2nc(-c3ccc(Oc4ccc(F)cc4)cc3)no2)n1 [118c], which “antibacterial activity (in words)” value is on record?
A: The value was “No activity”.

Q: Which “antibacterial activity (in words)” value does the source give for Oc1ccc(-c2nc(-c3ccc(Oc4ccc(C(F)(F)F)cc4)cc3)no2)cn1 [120b] here?
A: The value was “No activity”.

Q: Which “antibacterial activity (in words)” value does the source give for Nc1cc(-c2nc(-c3ccc(Oc4ccc(C(F)(F)F)cc4)cc3)no2)cnc1O [121b] here?
A: The value was “No activity”.

Q: For Nc1cncc(-c2nc(-c3ccc(Oc4ccc(C(F)(F)F)cc4)cc3)no2)c1 [122b], which “antibacterial activity (in words)” value is on record?
A: Its value is “No activity”.

Q: With Nc1cncc(-c2nc(-c3ccc(Oc4ccc(F)cc4)cc3)no2)c1 [122c] as the molecule, how does the “antibacterial activity (in words)” value read?
A: The value was “No activity”.

Q: With FC(F)(F)c1ccc(Oc2ccc(-c3noc(-c4n[nH]c5ccccc45)n3)cc2)cc1 [123b] as the molecule, how does the “antibacterial activity (in words)” value read?
A: The value was “No activity”.

Q: With FC(F)(F)c1ccc(Oc2ccc(-c3noc(-c4c[nH]c5ncccc45)n3)cc2)cc1 [125b] as the molecule, how does the “antibacterial activity (in words)” value read?
A: Its value is “No activity”.

Q: Which “antibacterial activity (in words)” value does the source give for Nc1c[nH]c(-c2nc(-c3ccc(Oc4ccc(F)cc4)cc3)no2)c1 [126c] here?
A: The value was “generally abolish antibacterial activity”.

Q: With Fc1ccc(Oc2ccc(-c3noc(-c4cc[nH]c4)n3)cc2)cc1 [127c] as the molecule, how does the “antibacterial activity (in words)” value read?
A: The value was “generally abolish antibacterial activity”.

Same assay, conditions: Staphylococcus aureus, ATCC29213|MSSA

Q: With Brc1c[nH]nc1-c1nc(-c2ccc(Oc3ccccc3)cc2)no1 [61a] as the molecule, how does the MIC read?
A: Its MIC is ≤ 1 µg/mL.
